Laboratory results from ChEMBL document CHEMBL3526108, “Contribution of carboxylesterase in hamster to the intestinal first-pass loss and low bioavailability of ethyl piperate, an effective lipid-lowering drug candidate” (Drug Metab Dispos, 2011).
Values belong to the molecule of their own block, whether it stands above or below them.

Tests used:
[1] = test system: Hamster; assay: Absorption clearance in hamster at 400 uM administered as intestinal single-pass perfusion up to 1 hr by LC-MS/MS analysis in presence of BNPP; type: ADME, organism-based; settings: cricetinae, in vivo, other
[2] = test system: Hamster; assay: Degradation clearance in hamster at 400 uM administered as intestinal single-pass perfusion up to 1 hr by LC-MS/MS analysis in presence of BNPP; type: ADME, organism-based; settings: cricetinae, in vivo, other
[3] = test system: Hamster; assay: Absorption clearance in hamster at 400 uM administered as intestinal single-pass perfusion up to 1 hr by LC-MS/MS analysis; type: ADME, organism-based; settings: cricetinae, in vivo, other
[4] = test system: Hamster; assay: Degradation clearance in hamster at 400 uM administered as intestinal single-pass perfusion up to 1 hr by LC-MS/MS analysis; type: ADME, organism-based; settings: cricetinae, in vivo, other
[5] = Apparent permeability coefficient of parent compound in hamster at 400 uM administered as intestinal single-pass perfusion up to 1 hr by LC-MS/MS analysis; type: ADME, organism-based; settings: cricetinae
[6] = test system: Hamster; assay: Drug metabolism in hamster assessed as production of piperinic acid at 400 uM administered as intestinal single-pass perfusion up to 1 hr by LC-MS/MS analysis; type: ADME, organism-based; settings: cricetinae, in vivo, other
[7] = test system: Hamster; assay: Drug metabolism in hamster assessed as appearance rate of parent compound in portal vein at 400 uM administered as intestinal single-pass perfusion up to 1 hr by LC-MS/MS analysis in presence of BNPP; type: ADME, organism-based; settings: cricetinae, in vivo, other
[8] = test system: Hamster; assay: Drug metabolism in hamster assessed as disappearance rate of parent compound in intestine at 400 uM administered as intestinal single-pass perfusion up to 1 hr by LC-MS/MS analysis in presence of BNPP; type: ADME, organism-based; settings: cricetinae, in vivo, other
[9] = MRT (0 to t) in hamster at 30 mg/kg, po; type: ADME, organism-based; set-up: dose 30 mg/kg, route oral; settings: cricetinae, in vivo
[10] = Tmax in hamster at 30 mg/kg, po; type: ADME, organism-based; set-up: dose 30 mg/kg, route oral; settings: cricetinae, in vivo
[11] = Oral bioavailability in hamster at 30 mg/kg; type: ADME, organism-based; settings: cricetinae, in vivo
[12] = AUC (0 to t) in hamster at 10 mg/kg, iv; type: ADME, organism-based; set-up: dose 10 mg/kg, route intravenous; settings: cricetinae, plasma
[13] = AUC (0 to t) in hamster at 30 mg/kg, po; type: ADME, organism-based; set-up: dose 30 mg/kg, route oral; settings: cricetinae, plasma
[14] = Cmax in hamster at 30 mg/kg, po; type: ADME, organism-based; set-up: dose 30 mg/kg, route oral; settings: cricetinae, in vivo
[15] = MRT (0 to t) in hamster at 10 mg/kg, iv; type: ADME, organism-based; set-up: dose 10 mg/kg, route intravenous; settings: cricetinae, in vivo
[16] = Elimination half life in hamster at 10 mg/kg, iv; type: ADME, organism-based; set-up: dose 10 mg/kg, route intravenous; settings: cricetinae, in vivo, read-out: beta t1/2 (converted)
[17] = test system: Hamster; assay: Volume of distribution in hamster at 10 mg/kg, iv; type: ADME, organism-based; set-up: dose 10 mg/kg, route intravenous; settings: cricetinae, in vivo
[18] = Stability of the compound at simulated gastrointestinal pH conditions assessed as degradation; type: ADME
[19] = Stability of the compound in hamster intestinal washings assessed as compound remaining at 100 uM after 1 hr by LC-MS/MS analysis; type: ADME; settings: cricetinae, read-out: Stability
[20] = Drug metabolism in hamster liver microsomes assessed as carboxylesterase-mediated compound hydrolysis at 50 uM after 30 mins; type: ADME; settings: cricetinae, 0.5 h
[21] = Drug metabolism in hamster kidney microsomes assessed as carboxylesterase-mediated compound hydrolysis at 50 uM after 30 mins; type: ADME; settings: cricetinae, 0.5 h
[22] = Drug metabolism in hamster intestinal microsomes assessed as carboxylesterase-mediated compound hydrolysis at 50 uM after 30 mins; type: ADME, Intestine; settings: cricetinae, 0.5 h
[23] = Drug metabolism in hamster liver microsomes assessed as carboxylesterase-mediated compound hydrolysis at 50 uM after 30 mins in presence of BNPP; type: ADME; settings: cricetinae, 0.5 h
[24] = Drug metabolism in hamster kidney microsomes assessed as carboxylesterase-mediated compound hydrolysis at 50 uM after 30 mins in presence of BNPP; type: ADME; settings: cricetinae, 0.5 h
[25] = Drug metabolism in hamster liver microsomes assessed as carboxylesterase-mediated compound hydrolysis at 50 uM after 30 mins in presence of BNPP in presence of BNPP; type: ADME; settings: cricetinae, 0.5 h
[26] = test system: Hamster; assay: Drug metabolism in hamster assessed as appearance rate of parent compound in portal vein at 400 uM administered as intestinal single-pass perfusion up to 1 hr by LC-MS/MS analysis; type: ADME, organism-based; settings: cricetinae, in vivo, other
[27] = test system: Hamster; assay: Drug metabolism in hamster assessed as disappearance rate of parent compound in intestine at 400 uM administered as intestinal single-pass perfusion up to 1 hr by LC-MS/MS analysis; type: ADME, organism-based; settings: cricetinae, in vivo, other
[28] = Apparent permeability coefficient of parent compound in hamster at 400 uM administered as intestinal single-pass perfusion up to 1 hr by LC-MS/MS analysis in presence of BNPP; type: ADME, organism-based; settings: cricetinae, with BNPP
[29] = test system: Hamster; assay: Drug metabolism in hamster intestinal S9 fraction assessed as production of piperinic acid at 400 uM administered as intestinal single-pass perfusion up to 1 hr by LC-MS/MS analysis in presence of BNPP; type: ADME, Intestine; settings: cricetinae, s9, 1 h
[30] = Drug metabolism in hamster intestinal S9 fraction assessed as production of piperinic acid by Michaelis-Menten equation analysis; type: ADME, Intestine; settings: cricetinae
[31] = Permeability from apical to basolateral side of human Caco2 cells at 5 uM after 1 hr in presence of BNPP; type: ADME, cell-based; settings: caco-2, 1 h
[32] = Permeability from basolateral to apical side of human Caco2 cells at 5 uM after 1 hr in presence of BNPP; type: ADME, cell-based; settings: caco-2, 1 h
[33] = Drug recovery in human Caco2 cells at 5 uM after 1 hr in presence of BNPP; type: ADME, cell-based; settings: Caco-2, with BNPP, read-out: Drug recovery
[34] = Apparent permeability coefficient of compound in hamster treated with 400 uM of ethyl piperate administered as intestinal single-pass perfusion up to 1 hr by LC-MS/MS analysis in presence of BNPP; type: ADME, organism-based; settings: cricetinae
[35] = test system: Hamster; assay: Drug metabolism in hamster assessed as appearance rate of compound in intestine treated with 400 uM of ethyl piperate administered as intestinal single-pass perfusion up to 1 hr by LC-MS/MS analysis; type: ADME, organism-based; settings: cricetinae, in vivo, other
[36] = Apparent permeability coefficient of compound in hamster treated with 400 uM of ethyl piperate administered as intestinal single-pass perfusion up to 1 hr by LC-MS/MS analysis; type: ADME, organism-based; settings: cricetinae
[37] = test system: Hamster; assay: Drug metabolism in hamster assessed as appearance rate of compound in portal vein treated with 400 uM of ethyl piperate administered as intestinal single-pass perfusion up to 1 hr by LC-MS/MS analysis in presence of BNPP; type: ADME, organism-based; settings: cricetinae, in vivo, other
[38] = test system: Hamster; assay: Drug metabolism in hamster assessed as appearance rate of compound in portal vein treated with 400 uM of ethyl piperate administered as intestinal single-pass perfusion up to 1 hr by LC-MS/MS analysis; type: ADME, organism-based; settings: cricetinae, in vivo, other
[39] = test system: Hamster; assay: Drug metabolism in hamster assessed as appearance rate of compound in intestine treated with 400 uM of ethyl piperate administered as intestinal single-pass perfusion up to 1 hr by LC-MS/MS analysis in presence of BNPP; type: ADME, organism-based; settings: cricetinae, in vivo, other

CL(app) [1]: 55 µL/min
CL [2]: 121.6 µL/min
CL(app) [3]: 66.7 µL/min
CL [4]: 339.9 µL/min
Papp at 1 h, 400 µM [5]: 77 ×10⁻⁶ cm/s
Drug metabolism [6]: 0.196 nmol/min/mg
Drug metabolism [7]: 9.8 nmol/min
Drug metabolism [8]: 62.7 nmol/min
MRT last [9]: 24 min
Tmax [10]: 9 min
bioavailability [11]: 0.47%
AUC(0-t) [12]: 2450 ng·h/mL
AUC(0-t) [13]: 34.5 ng·h/mL
Cmax [14]: 70.4 ng/mL
MRT last [15]: 25.8 min
half-life [16]: 37.8 min
Vz/F [17]: 3.76 L/kg
Stability [18]: Stable
remaining at 1 h, 100 µM [19]: > 80%
Drug metabolism [20]: metabolite_detected
Drug metabolism [21]: metabolite_detected
Drug metabolism [22]: metabolite_detected
Drug metabolism [23]: metabolite_not_detected
Drug metabolism [24]: metabolite_not_detected
Drug metabolism [25]: metabolite_not_detected
Drug metabolism [26]: 10.8 nmol/min
Drug metabolism [27]: 76.5 nmol/min
Papp at 1 h, 400 µM [28]: 59.8 ×10⁻⁶ cm/s
Drug metabolism [29]: 0.06 nmol/min/mg
Km [30]: 7.56 µM
Vmax [30]: 0.16 nmol/min/mg
permeability [31]: impermeable
permeability [32]: impermeable
recovery at 1 h, 5 µM [33]: > 90%
Compound: CCOC(=O)/C=C/C=C/c1ccc2c(c1)OCO2

Papp at 1 h [34]: 127 ×10⁻⁶ cm/s
Drug metabolism [35]: 2.3 nmol/min
Papp at 1 h [36]: 373 ×10⁻⁶ cm/s
Drug metabolism [37]: 21.7 nmol/min
Drug metabolism [38]: 52.1 nmol/min
Drug metabolism [39]: 2 nmol/min
Compound: O=C(O)/C=C/C=C/c1ccc2c(c1)OCO2 [PIPERIC ACID]
